Results as given in patent US10358469B2, “Methods and pharmaceutical compositions for the treatment of cancer” (INSERM (INSTITUT NATIONAL DE LA SANTÉ ET DE LA RECHERCHE …, priority 2014, dated 2019).

How the values were obtained:
HaCat cells = assay: Lactate dehydrogenase (LDH) release, HaCat cells; format: cell-based; conditions: 10 μM, FIG. 4B
Experimental: FIG. 4: Antp-AAC-11-LZ (363-399) peptide induced necrotic cell death under low serum conditions. (A) SeAx or HaCat cells cultured in the absence of 10% FBS were left untreated or treated with 4 μM or 10 μM, respectively, of the Antp-AAC-11-LZ (363-399) peptide for the indicated durations. Cells were then analyzed by flow cytometry for PI staining. The results represent the mean number of PI-positive cells±S.D. from at least three independent experiments. (B) A549 and HaCat cells were plated at a densities of 4.5×10^3 in 96 well plates (100 μL total volume per well) and allowed to attach overnight in a 37° C. incubator (5% CO2). […] Lactate dehydrogenase (LDH) activity released in the culture medium was then assessed and data expressed as a percentage of the maximal level (Max) of LDH activity determined after total cell lysis±S.D. from at least three independent experiments.
Cytoplasmic lactate dehydrogenase (LDH) release into the cell culture supernatant occurs upon damage of the plasma membrane, and it is therefore considered a typical hallmark of necrosis. […] LDH activity was measured using the CytoTox 96® assay (Promega) by the reduction of lactate to pyruvate in the presence of NAD^+. […] Visible wavelength absorbance data are collected using a standard 96-well plate reader. […]
Necrosis was further assessed based on lactate dehydrogenase (LDH) activity release in the culture medium. […]

[1] = test system: human triple-negative breast cancer xenograft PDX01; assay: Triple-negative breast cancer patient-derived xenograft PDX01 in nude mice; format: in vivo; conditions: 2.4 mg/kg i.p., 7 daily injections, FIG. 8B
Experimental: Breast cancer fragments were obtained from patients at the time of surgery, with informed written patient consent. After imaging-guided human tumor biopsies had been performed, fragments of 30 to 60 mm^3 were subcutaneously grafted in 6-week-old NMRI-nude mice (Centre-Elevage-Janvier, France), under xylasin (10 mg/kg)/ketamin (100 mg/kg) anesthesia. Mice were maintained in specific pathogen-free animal housing (Institut Universitaire d'Hematologie) and received estrogen (17 mg/mL) diluted in drinking water. Xenografts were characterized and subsequently subcutaneously transplanted from mouse to mouse. […] Two human triple-negative breast cancer (HBC) xenografts models were used in our experiments (PDX01 and PDX02). […] Following transplantation (n=6 per model) tumor growth was assessed by measuring tumor size in two dimension using a Vernier caliper. Tumor volume was calculated using the formula [3.14×long axis×short axis×short axis]/6 (Kjonniksen et al., 1989). […] Mice were weighted and the tumor size was measured by a caliper and recorded daily. Fourteen days after beginning of the treatment mice were sacrificed. The tumors, kidney, lungs, heart, liver, pancreas and spleen were taken and fixed. Paraffin-embedded sections were prepared and stained with hematoxylin and eosin for histological analysis.

Substance: Ac-RQIKIWFKKQNRRMKWKKAKLNAEKLKDFKIRLQYFARGLQVYIRQLRLALQGKT-NH2 [Antp-AAC-11-LZ (363-399)]
- LDH release in nonmalignant cells (HaCat cells): little LDH release
- tumor size versus vehicle [1]: significantly smaller tumors
